According to the supplement of paper PMC11061612:

Experiments:
[1] = test system: HH (T-Cell Non-Hodgkin's Lymphoma); assay: combination Emax (second highest fraction inhibited in the dose matrix, 72 h); higher = more inhibition; extreme values may be limits of the assay
Procedure, shortened: (§1)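 After 24 hours at 37°C and 5% CO2 in 1536-well plates, cells in DMEM/F12 or RPMI plus 10% FBS received two-drug dose matrices for 72 hours. Viability came from CellTiter-Glo 2.0 luminescence and was scaled as inhibition, anchored at 0 by vehicle wells and at 1 by blank wells. Combination Emax is taken as the second-highest inhibition in the matrix, and Bliss excess as the observed combination effect less EA + EB − EA·EB, with EA and EB the single-agent effects.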

KS-1 (Glioblastoma) [2] = assay: as above
Procedure, shortened: as §1

[3] = test system: LS-123 (Colorectal Carcinoma); assay: as above
Procedure, shortened: as §1

[4] = test system: OE21 (Esophageal Squamous Cell Carcinoma); assay: as above
Procedure, shortened: as §1

[5] = test system: LCLC-97TM1 (Non-Small Cell Lung Carcinoma); assay: as above
Procedure, shortened: as §1

[6] = test system: SW1573 (Lung Adenocarcinoma); assay: Bliss excess, mean over the matrix (fraction); higher = more synergy
Procedure, shortened: as §1

BPH-1 (Non-Cancerous) = assay: as above
Procedure, shortened: as §1

[7] = test system: HuH-7 (Hepatocellular Carcinoma); assay: as above
Procedure, shortened: as §1

[8] = test system: BE-13 (T-Lymphoblastic Leukemia); assay: as above
Procedure, shortened: as §1

[9] = test system: KYAE-1 (Esophageal Adenocarcinoma); assay: as above
Procedure, shortened: as §1

KS-1 (Glioblastoma) [10] = assay: as above
Procedure, shortened: as §1

CAL-72 (Osteosarcoma) = assay: as above
Procedure, shortened: as §1

[11] = test system: Detroit562 (Head and Neck Carcinoma); assay: as above
Procedure, shortened: as §1

A673 (Ewing's Sarcoma) = assay: as above
Procedure, shortened: as §1

[12] = test system: LCLC-97TM1 (Non-Small Cell Lung Carcinoma); assay: as above
Procedure, shortened: as §1

[13] = test system: HeLa (Cervical Carcinoma); assay: as above
Procedure, shortened: as §1

[14] = test system: SNU-16 (Gastric Carcinoma); assay: as above
Procedure, shortened: as §1

[15] = test system: NCI-H1568 (Lung Adenocarcinoma); assay: as above
Procedure, shortened: as §1

[16] = test system: KMRC-20 (Kidney Carcinoma); assay: as above
Procedure, shortened: as §1

NCI-H2722 (Mesothelioma) = assay: as above
Procedure, shortened: as §1
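Wherever Bliss excess, mean over the matrix is given: after 72 h of two-drug dosing.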

Compound | combination Emax [1] | combination Emax (KS-1 (Glioblastoma) [2]) | combination Emax [3] | combination Emax [4] | combination Emax [5] | Bliss excess [6] | Bliss excess (BPH-1 (Non-Cancerous)) | Bliss excess [7] | Bliss excess [8] | Bliss excess [9] | Bliss excess (KS-1 (Glioblastoma) [10]) | Bliss excess (CAL-72 (Osteosarcoma)) | Bliss excess [11] | Bliss excess (A673 (Ewing's Sarcoma)) | Bliss excess [12] | Bliss excess [13] | Bliss excess [14] | Bliss excess [15] | Bliss excess [16] | Bliss excess (NCI-H2722 (Mesothelioma))
CC1(C)CCC(CN2CCN(c3ccc(C(=O)NS(=O)(=O)c4ccc(NCC5CCOCC5)c([N+](=O)[O-])c4)c(Oc4cnc5[nH]ccc5c4)c3)CC2)=C(c2ccc(Cl)cc2)C1 [Venetoclax] + Cn1cnc2c(F)c(Nc3ccc(Br)cc3Cl)c(C(=O)NOCCO)cc21 [Selumetinib] (first compound max 1 µM, 7x7, partner max 3 µM) | 0.132 | 0.261 | 0.374 | 0.337 | 0.458 | -0.0621 | 0.0055 | -0.055 | -0.0418 | -0.028 | 0.0043 | -0.0593 | -0.0516 | 0.0048 | -0.0023 | -0.0369 | -0.0052 | -0.0681 | 0.0022 | -0.0741
Cc1c2c(nn1C)CSCc1cc(n(C)n1)CSc1cc(c3ccccc3c1)OCCCc1c(C(=O)O)n(C)c3c-2c(Cl)ccc13 [AZD5991] + CCN(CCO)CCCOc1ccc2c(Nc3cc(CC(=O)Nc4cccc(F)c4)[nH]n3)ncnc2c1 [AZD2811] (first compound max 1 µM, 7x7, partner max 1 µM) | 0.728 | 0.286 | 0.229 | 0.522 | 0.722 | 0.0108 | 0.0077 | 0.0109 | 0.0225 | 0.0422 | -0.0459 | 0.0582 | 0.0396 | 0.0886 | 0.0885 | 0.0319 | 0.0377 | -0.0051 | 0.0023 | -0.0407
COc1nnc2ccc(N3CCC(c4ccc(OCCN5CCN(C)C(=O)[C@H]5C)cc4)CC3)nn12 [AZD5153] + C[C@@H]1COCCN1C2=NC(=NC(=C2)C3(CC3)[S@](=N)(=O)C)C4=C5C=CNC5=NC=C4 [AZD6738] (first compound max 1 µM, 7x7, partner max 10 µM) | 0.491 | 0.69 | 0.59 | 0.858 | 0.87 | 0.109 | 0.0343 | 0.113 | -0.0227 | -0.003 | -0.0349 | -0.0087 | -0.0241 | 0.0361 | -0.033 | -0.0406 | -0.0408 | -0.0822 | 0.0821 | 0.0378
Cc1c2c(nn1C)CSCc1cc(n(C)n1)CSc1cc(c3ccccc3c1)OCCCc1c(C(=O)O)n(C)c3c-2c(Cl)ccc13 [AZD5991] + Cc1cc2ncnn2cc1Nc1ncc2c(n1)n(C1CCOCC1)c(=O)n2C [AZD7648] (first compound max 1 µM, 7x7, partner max 10 µM) | 0.71 | 0.253 | 0.399 | 0.385 | 0.385 | -0.0896 | -0.0632 | -0.0408 | 0.0066 | -0.0285 | -0.0797 | -0.0475 | -0.0172 | -0.0515 | -0.0015 | 0.0021 | 0.0284 | -0.0717 | -0.0036 | -0.0785
Cn1cnc2c(F)c(Nc3ccc(Br)cc3Cl)c(C(=O)NOCCO)cc21 [Selumetinib] + CC(C)n1c(=O)n(C)c2cnc3cc(F)c(-c4ccc(OCCCN5CCCCC5)nc4)cc3c21 [AZD1390] (first compound max 10 µM, 7x7, partner max 0.3 µM) | 0.198 | 0.197 | 0.488 | 0.386 | 0.528 | -0.0796 | 0.026 | -0.0205 | -0.0283 | -0.026 | -0.0384 | -0.0484 | 0.003 | -0.0481 | 0.0069 | -0.0437 | -0.0185 | -0.0508 | -0.0458 | -0.0678
COc1nnc2ccc(N3CCC(c4ccc(OCCN5CCN(C)C(=O)[C@H]5C)cc4)CC3)nn12 [AZD5153] + Cn1cnc2c(F)c(Nc3ccc(Br)cc3Cl)c(C(=O)NOCCO)cc21 [Selumetinib] (first compound max 1 µM, 7x7, partner max 10 µM) | 0.42 | 0.645 | 0.794 | 0.861 | 0.848 | -0.0062 | -0.0385 | 0.006 | -0.0209 | -0.004 | 0.0982 | -0.0414 | -0.0316 | 0.111 | -0.0694 | -0.0409 | -0.0058 | -0.0099 | -0.08 | -0.0597
CN(C)CCCOc1ccc(-c2ccc3ncc4c(c3c2)n(C2CCOCC2)c(=O)n4C)cn1 [AZD0156] + C=CCn1c(=O)c2cnc(Nc3ccc(N4CCN(C)CC4)cc3)nc2n1-c1cccc(C(C)(C)O)n1 [AZD1775] (first compound max 1 µM, partner max 1 µM) | 0.442 | 0.39 | 0.609 | 0.567 | 0.828 | -0.0423 | 0.0475 | -0.0497 | -0.0329 | -0.0143 | -0.0268 | -0.0492 | -0.0122 | 0.0342 | -0.0179 | -0.0364 | -0.0158 | -0.0493 | -0.0707 | -0.0363
COc1cccc(OCCCN)c1-c1cc(Nc2cnc(C#N)cn2)n[nH]1 [Prexasertib] + C=CCn1c(=O)c2cnc(Nc3ccc(N4CCN(C)CC4)cc3)nc2n1-c1cccc(C(C)(C)O)n1 [AZD1775] (first compound max 1 µM, partner max 1 µM) | 0.742 | 0.581 | 0.828 | 0.733 | 0.951 | 0.0456 | 0.115 | 0.0469 | 0.0317 | 0.103 | -0.0244 | 0.0055 | 0.0416 | 0.0752 | 0.057 | 0.0651 | 0.0756 | 0.0284 | -0.0104 | 0.0156
NC1(C(=O)N[C@@H](CCO)c2ccc(Cl)cc2)CCN(c2ncnc3[nH]ccc23)CC1 [Capivasertib] + CCN(CCO)CCCOc1ccc2c(Nc3cc(CC(=O)Nc4cccc(F)c4)[nH]n3)ncnc2c1 [AZD2811] (first compound max 10 µM, 7x7, partner max 1 µM) | 0.281 | 0.547 | 0.398 | 0.642 | 0.686 | -0.0197 | 0.0118 | -0.0168 | -0.0125 | 0.0023 | 0.0374 | 0.002 | -0.0114 | -0.0158 | 0.0429 | -0.0411 | 0.0416 | -0.0235 | -0.015 | -0.0044
